# Experimental data from patent US20250344734A1, “UNSATURATED FATTY ACIDS AND THEIR USE TO MODIFY TASTE” (Firmenich Incorporated, priority 2022, published 2025).
# Key:
# Type in all cases: cell-based
# T2R09 (TAS2R09) = target: T1, T2R09 (TAS2R09) (Homo sapiens, UniProt Q9NYW1); assay: FLIPR calcium assay, block of bitter agonist response, T2R09; settings: unsaturated fatty acid concentration of 200 µM, cells stimulated with known bitter agonist
# T1 construct: expressed in transfected cells; host or cells: cells expressing a promiscuous G protein (e.g., G16g44)
# T1 sequence (Q9NYW1 1-312): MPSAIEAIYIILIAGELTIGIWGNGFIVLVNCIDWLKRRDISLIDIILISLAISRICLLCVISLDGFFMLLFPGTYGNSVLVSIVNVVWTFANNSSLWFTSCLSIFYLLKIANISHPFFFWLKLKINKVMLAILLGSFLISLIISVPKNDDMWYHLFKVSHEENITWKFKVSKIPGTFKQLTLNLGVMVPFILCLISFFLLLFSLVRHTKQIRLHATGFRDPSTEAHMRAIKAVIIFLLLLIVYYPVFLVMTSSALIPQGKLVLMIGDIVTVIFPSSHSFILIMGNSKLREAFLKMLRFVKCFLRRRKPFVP
# Description: (§1) Cells expressing a promiscuous […] (e.g., G16g44) were transfected with vectors encoding 18 functional bitter receptor cDNAs, with one receptor per transfection. The cells were transfected directly in 384-well format high-density plates and incubated for 28 hours. Later, cells were loaded with the Ca-specific dye Fluo4-AM. After an incubation of 60 minutes, excess dye is washed off, and cells are stimulated with a known bitter agonist for each receptor and various unsaturated fatty acids. Changes in intracellular fluorescence are recorded using a FLIPR instrument. Bitter antagonists and corresponding receptors are identified based on percentage inhibition of agonist's activity on a given receptor.
# (§2) The above protocol was carried out using 16 different unsaturated fatty acids. A particular T2R receptor was identified as being antagonized by a particular unsaturated fatty acid if it triggered a >25% block of agonist's cellular response at 200 μM concentration of unsaturated fatty acid. […] Table 2 indicates the sixteen (16) compounds tested by their compound number from Table 1 above. The 18 bitter taste receptors screened are the human bitter taste receptors we named. […]
# T2R75 (TAS2R46) = target: T2, T2R75 (TAS2R46) (Homo sapiens, UniProt P59540); assay: FLIPR calcium assay, block of bitter agonist response, T2R75; settings: unsaturated fatty acid concentration of 200 µM, cells stimulated with known bitter agonist
# T2 construct: expressed in transfected cells; host or cells: cells expressing a promiscuous G protein (e.g., G16g44)
# T2 sequence (P59540 1-309): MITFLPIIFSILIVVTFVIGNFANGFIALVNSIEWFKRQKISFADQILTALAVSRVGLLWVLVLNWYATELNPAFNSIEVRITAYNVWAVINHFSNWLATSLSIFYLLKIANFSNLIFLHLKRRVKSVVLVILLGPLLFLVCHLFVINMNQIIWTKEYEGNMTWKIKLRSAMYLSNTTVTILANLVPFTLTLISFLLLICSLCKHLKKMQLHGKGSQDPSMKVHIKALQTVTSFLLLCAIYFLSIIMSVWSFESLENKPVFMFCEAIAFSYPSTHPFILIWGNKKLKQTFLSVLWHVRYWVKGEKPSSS
# Description: as §1
# (§3) The above protocol was carried out using 16 different unsaturated fatty acids. A particular T2R receptor was identified as being antagonized by a particular unsaturated fatty acid if it triggered a >25% block of agonist's cellular response at 200 μM concentration of unsaturated fatty acid. […] Table 2 indicates the sixteen (16) compounds tested by their compound number from Table 1 above. The 18 bitter taste receptors screened are the human bitter taste receptors we named. T2R01 (TAS2R01), T2R03 (TAS2R03), T2R04 (TAS2R04), T2R07 (TAS2R07), T2R08 (TAS2R08), T2R09 (TAS2R09), T2R10 (TAS2R10), T2R13 (TAS2R13), T2R14 (TAS2R14), T2R16 (TAS2R16), T2R54 (TAS2R39, T2R61 (TAS2R43), T2R63 (TA2R20), T2R64 (TAS2R31), T2R65 (TAS2R19), T2R67 (TAS2R50), T2R71 (TAS2R41), and T2R75 (TAS2R46). The corresponding IUPHAR nomenclature for each receptor is given in parenthesis. In Table 2, these receptors are identified by the last two digits. For example, T2R01 is indicated as 01. Table 2 reports the percentage block of cellular response over baseline at an unsaturated fatty acid concentration of 200 µM.
# T2R01 (TAS2R01) = target: T3, T2R01 (TAS2R01) (Homo sapiens, UniProt Q9NYW7); assay: FLIPR calcium assay, block of bitter agonist response, T2R01; settings: unsaturated fatty acid concentration of 200 µM, cells stimulated with known bitter agonist, read-out: percentage block of cellular response over baseline, 01
# T3 construct: expressed in transfected cells; host or cells: cells expressing a promiscuous G protein (e.g., G16g44)
# T3 sequence (Q9NYW7 1-299): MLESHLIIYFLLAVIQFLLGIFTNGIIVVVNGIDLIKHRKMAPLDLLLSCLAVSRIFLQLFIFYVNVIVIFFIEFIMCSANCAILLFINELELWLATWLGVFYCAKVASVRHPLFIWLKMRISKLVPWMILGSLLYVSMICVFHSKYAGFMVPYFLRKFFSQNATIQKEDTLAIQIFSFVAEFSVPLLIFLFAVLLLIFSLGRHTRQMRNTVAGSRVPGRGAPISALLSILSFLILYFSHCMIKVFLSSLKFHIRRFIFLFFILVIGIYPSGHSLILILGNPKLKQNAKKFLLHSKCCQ
# Description: as §1, §3
# T2R03 (TAS2R03) = target: T4, T2R03 (TAS2R03) (Homo sapiens, UniProt Q9NYW6); assay: FLIPR calcium assay, block of bitter agonist response, T2R03; settings: unsaturated fatty acid concentration of 200 µM, cells stimulated with known bitter agonist
# T4 construct: expressed in transfected cells; host or cells: cells expressing a promiscuous G protein (e.g., G16g44)
# T4 sequence (Q9NYW6 1-316): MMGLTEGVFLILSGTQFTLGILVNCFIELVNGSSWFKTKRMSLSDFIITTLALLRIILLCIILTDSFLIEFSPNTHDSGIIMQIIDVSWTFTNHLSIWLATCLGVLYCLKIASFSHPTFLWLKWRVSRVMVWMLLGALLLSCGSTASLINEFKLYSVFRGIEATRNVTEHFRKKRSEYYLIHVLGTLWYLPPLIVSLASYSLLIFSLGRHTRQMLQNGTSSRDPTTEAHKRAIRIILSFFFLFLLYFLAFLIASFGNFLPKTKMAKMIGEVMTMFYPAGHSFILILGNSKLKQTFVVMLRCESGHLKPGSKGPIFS
# Description: as §1, §2
# T2R71 (TAS2R41) = target: T5, T2R71 (TAS2R41) (Homo sapiens, UniProt P59536); assay: FLIPR calcium assay, block of bitter agonist response, T2R71; settings: unsaturated fatty acid concentration of 200 µM, cells stimulated with known bitter agonist
# T5 construct: expressed in transfected cells; host or cells: cells expressing a promiscuous G protein (e.g., G16g44)
# T5 sequence (P59536 1-307): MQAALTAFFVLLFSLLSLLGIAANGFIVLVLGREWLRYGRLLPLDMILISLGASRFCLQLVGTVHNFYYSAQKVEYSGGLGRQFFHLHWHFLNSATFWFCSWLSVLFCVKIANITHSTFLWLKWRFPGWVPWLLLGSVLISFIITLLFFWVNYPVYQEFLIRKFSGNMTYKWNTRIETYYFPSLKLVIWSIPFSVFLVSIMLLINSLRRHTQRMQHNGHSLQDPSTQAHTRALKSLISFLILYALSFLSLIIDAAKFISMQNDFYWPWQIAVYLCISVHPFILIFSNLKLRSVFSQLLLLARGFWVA
# Description: as §1, §2
structure (smiles),measurement,setting,value
CC(C)=CCC/C(C)=C/C(=O)O [Compound 129],"percentage block of cellular response over baseline, 09",T2R09 (TAS2R09),30%
same,"percentage block of cellular response over baseline, 75",T2R75 (TAS2R46),50%
same,inhibition at 200 µM,T2R01 (TAS2R01),40%
same,"percentage block of cellular response over baseline, 03",T2R03 (TAS2R03),>45%
same,"percentage block of cellular response over baseline, 71",T2R71 (TAS2R41),30%
